According to patent publication US9981908B2, “Amino acid derivatives” (priority 2013, dated 2018):
Like-named read-outs stand apart in the source and are kept apart here.

Target: T1, pylRS/tRNA pair (Methanosarcina mazei, UniProt Q8PWY1, Y384F)
T1 construct: expressed in transfected cells; host or cells: HEK293 cells stably expressing pylRS
Assay type: cell-based
Conditions: HEK293 cells stably expressing pylRS, nnAAs at 2 mM for 2-3 days; for incorporation in the GFP reporter gene (green cells) / MFI: tRNApyl and GFPY40 reporter; for Positive GFP Assay: transfected with tRNApyl and GFPY40 reporter, visual inspection under the microscope; for MFI: GFP fluorescence by flow cytometry, geometric mean of the fluorescent cells
Text: An in vitro cell based assay was developed to assess the compatibility of the pylRS/tRNA pair and the pyrrolysine analogs of the present invention (nnAAs) by and the efficiency of nnAAs integration into a target protein. For this, HEK293 cells stably expressing pylRS (SEQ ID NO 4) were transiently transfected with plasmids for the expression of tRNApyl (SEQ ID NO 7) and a reporter construct encoding GFPY40 (containing amber codon in place of tyrosine at amino acid residue number 40 (where 1 is the initiator methionine)) (SEQ ID NOs 10 and 11) using standard transfection protocols. Transfected cells were incubated with nnAAs at 2 mM for 2-3 days GFP production was analyzed qualitatively by visual inspection under the microscope. The GFP fluorescence was quantified by flow cytometry using an Accuri flow cytometer and the geometric mean of the fluorescent cells determined.
This cell based assay was used to determine whether the different nnAAs were suitable substrates for the pylRS and allowed its translation into a target protein. Cells expressing the PylRS/tRNApyl pair and containing a vector encoding the GFPY40 reporter gene were incubated in the presence of the nnAAs. nnAAs that are readily utilized by the PylRS/tRNApyl pair support the translation of the nnAA into the amber site of GFP and allow read-through of the gene producing full length GFP (fluorescent protein). The fluorescence intensity of the cells depends on the efficiency of nnAA incorporation. Thus, nnAAs that are poorly utilized produce weakly fluorescent or non-fluorescing cells. […] Furthermore, the relative expression levels in each sample was compared to those generated by substrates known to be efficiently utilized by pylRS.

T1 sequence (Q8PWY1 whole entry Y384F): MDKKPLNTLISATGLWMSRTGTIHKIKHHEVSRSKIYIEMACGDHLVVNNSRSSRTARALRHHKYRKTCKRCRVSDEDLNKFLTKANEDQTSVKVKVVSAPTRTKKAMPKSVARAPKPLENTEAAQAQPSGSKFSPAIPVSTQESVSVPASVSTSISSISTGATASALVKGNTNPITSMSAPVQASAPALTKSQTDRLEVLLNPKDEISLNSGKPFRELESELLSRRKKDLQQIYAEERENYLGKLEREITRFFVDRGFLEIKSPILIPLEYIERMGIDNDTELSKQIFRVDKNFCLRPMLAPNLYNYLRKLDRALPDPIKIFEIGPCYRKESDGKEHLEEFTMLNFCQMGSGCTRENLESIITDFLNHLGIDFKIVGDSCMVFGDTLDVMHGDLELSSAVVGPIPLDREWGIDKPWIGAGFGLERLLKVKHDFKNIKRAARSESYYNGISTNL

SMILES | incorporation in the GFP reporter gene (green cells) | Positive GFP Assay | other results
C=CCNC(=O)NCCCC[C@H](N)C(=O)O [Formula IA.5, (2S)-2-amino-6-{[(prop-2-en-1-yl)carbamoyl]amino}hexanoic acid] | incorporated in the GFP reporter gene and yield green cells |  | 
C#CCOC(=O)NCCSCC(N)C(=O)O (stereo in doubt) [Formula III.2, (2S)-2-amino-3-[(2-{[(prop-2-yn-1-yloxy)carbonyl]amino}ethyl)sulfanyl]propanoic acid] | incorporated in the GFP reporter gene and yield green cells | Yes | 
C=CCNC(=O)CCCSCC(N)C(=O)O (stereo in doubt) [Formula III.12, (2S)-2-amino-3-({3-[(prop-2-en-1-yl)carbamoyl]propyl}sulfanyl)propanoic acid] | incorporated in the GFP reporter gene and yield green cells | Yes | 
[N-]=[N+]=NCCNC(=O)CCCSCC(N)C(=O)O (stereo in doubt) [Formula III.13, (2S)-2-amino-3-({3-[(2-azidoethyl)carbamoyl]propyl}sulfanyl)propanoic acid] | incorporated in the GFP reporter gene and yield green cells | Yes | 
C=CCOC(=O)NC(CCN=[N+]=[N-])C(=O)NC[C@H](N)C(=O)O (stereo partly drawn) [Formula VIII.1, (2S)-2-amino-3-(4-azido-2-{[(prop-2-en-1-yloxy)carbonyl]amino}butanamido)propanoic acid] |  | Yes | 
C=CCOC(=O)NCC(=O)NC[C@H](N)C(=O)O [Formula V.3, (2S)-2-amino-3-(2-{[(prop-2-en-1-yloxy)carbonyl]amino}acetamido)propanoic acid] | incorporated in the GFP reporter gene and yield green cells | Yes | 
C#CCOC(=O)NCC(=O)NC[C@H](N)C(=O)O [Formula V.2, (2S)-2-amino-3-(2-{[(prop-2-yn-1-yloxy)carbonyl]amino}acetamido)propanoic acid] | incorporated in the GFP reporter gene and yield green cells |  | 
C=CCOC(=O)NCCCC[C@H](N)C(=O)O [Formula IA.3, (2S)-2-amino-6-{[(prop-2-en-1-yloxy)carbonyl]amino}hexanoic acid] |  | Yes | MFI: 2,250,000; MFI (listed as 1A.3): 2250000
C#CCOC(=O)NCCCC[C@H](N)C(=O)O [Formula IA.2, (2S)-2-amino-6-{[(prop-2-yn-1-yloxy)carbonyl]amino}hexanoic acid] |  | Yes | MFI: 1,676,250; MFI (listed as 1A.2): 1676250
[N-]=[N+]=NCCOC(=O)NCCCC[C@H](N)C(=O)O [Formula IA.1, (2S)-2-amino-6-{[(2-azidoethoxy)carbonyl]amino}hexanoic acid] |  | Yes | MFI: 931,289; MFI (listed as 1A.1): 931289
CCCC(N=[N+]=[N-])C(=O)NCCCC[C@H](N)C(=O)O (stereo partly drawn) [Formula VII.1, (2S)-2-amino-6-(2-azidopentanamido)hexanoic acid] | incorporated in the GFP reporter gene and yield green cells | Yes | 
C=CCOC(=O)NCCSCC(N)C(=O)O (stereo in doubt) [Formula III.3, (2S)-2-amino-3-[(2-{[(prop-2-en-1-yloxy)carbonyl]amino}ethyl)sulfanyl]propanoic acid] | incorporated in the GFP reporter gene and yield green cells | Yes | 
[N-]=[N+]=NCCNC(=O)NCCCC[C@H](N)C(=O)O [Formula IA.4, (2S)-2-amino-6-{[(2-azidoethyl)carbamoyl]amino}hexanoic acid] | incorporated in the GFP reporter gene and yield green cells | Yes | MFI: 254250
[N-]=[N+]=NCCOC(=O)NCC(=O)NC[C@H](N)C(=O)O [Formula V.1, (2S)-2-amino-3-(2-{[(2-azidoethoxy)carbonyl]amino}acetamido)propanoic acid] | incorporated in the GFP reporter gene and yield green cells | Yes | 
[N-]=[N+]=NCCOC(=O)NCCSCC(N)C(=O)O (stereo in doubt) [Formula III.1, (2S)-2-amino-3-[(2-{[(2-azidoethoxy)carbonyl]amino}ethyl)sulfanyl]propanoic acid] | incorporated in the GFP reporter gene and yield green cells | Yes | 
